Reference: patent US20250375458A1, “COMPOSITIONS AND METHODS TO COMBAT MULTIDRUG-RESISTANT AND […]-CELL-MEDIATED, O[…] INFECTIOUS DISEASES” (Theralase Technologies, Inc., priority 2024, published 2025)

Legend:
[1] = test system: human Herpes Simplex 1 (HSV-1) virus; test: HSV-1 virus yield in A549 host cells by plaque forming assay, with Bliss synergy score; type: cell-based; details: for HSV-1 yield suppression, single agent: A549 host cells, MOI 0.3, three days, 50 nM RUVIDAR or RUTHERRIN, 1 μM Acyclovir, 0.2% DMSO
Procedure: A549 human lung cancer cells are used as a host for virus growth, treatment, and later survival quantification. A549 cells are plated overnight, then incubated for 4 hours with or without 50 nM RUVIDAR or RUTHERRIN, with or without 1 μM Acyclovir or 0.2% DMSO (concentration non-toxic for the host cells). After the initial incubation of the host cells with the compounds, the cells are infected with the human Herpes Simplex 1 (HSV-1) virus at the multiplicity of infection (MOI)=0.3 and further incubated for three days (the mentioned compounds are still present in the culture media over the full course of incubation). After that, supernatant is harvested, centrifuged to remove debris, and the yield of infectious virus is determined by plaque forming assay (PFA) using supernatant for the host cells infection. The formed plaques are counted, and virus titer is calculated as Plaque Forming Units/mL=(Plaques number*Dilution)/Volume of Virus Inoculum. Titers normalized for control titer (untreated HSV-1 and host cells) produce relative virus yield (which is equivalent to inhibition rate).
The data are presented as virus yield normalized to Control. To estimate synergistic effect of two combined compounds, synergy Bliss score was calculated, as the difference between the actual inhibiting effect of the combination and the predicted inhibiting effect under “no synergy” assumption (Bliss score): Synergy score=Inhibition_RateCompound1 & Compound2−(Inhibition_RateCompound1+Inhibition_RateCompound2−Inhibition_RateCompound1* Inhibition_RateCompound2).

[2] = test system: CD47; test: CD47 expression by flow cytometry in T24 cells; type: cell-based, human; details: 3 μM for 2 days, MFI normalized to untreated cells
Sequence of CD47 (Q08722 19-323): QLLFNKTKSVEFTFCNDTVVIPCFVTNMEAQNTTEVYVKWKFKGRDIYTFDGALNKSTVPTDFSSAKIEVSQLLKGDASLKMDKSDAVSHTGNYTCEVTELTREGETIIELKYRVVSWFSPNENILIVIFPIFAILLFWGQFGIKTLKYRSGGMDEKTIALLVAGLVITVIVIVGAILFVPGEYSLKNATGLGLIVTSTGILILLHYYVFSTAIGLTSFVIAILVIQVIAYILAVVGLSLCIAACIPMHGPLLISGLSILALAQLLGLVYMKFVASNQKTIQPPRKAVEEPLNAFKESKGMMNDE
Procedure: (§1) In the tests whose results are shown in FIGS. 8A and 8B, T24 human bladder cancer cells or U87 human glioma cells were treated with 3 μM of RUVIDAR or RUTHERRIN for 2 days, and cells were collected and stained with fluorescent-labelled antibodies to CD47 and PD-L1 and analyzed by flow cytometry. MFI was normalized to control untreated cells and expressed as percentage of change.

[3] = test system: A549 human Non-Small Cell Lung Cancer cells; test: Hoechst 33342 dye accumulation by flow cytometry (MFI); type: cell-based; details: 3 μM 4 hours, then Hoechst 33342 1 hour
Procedure: (§2) Hoechst 33342 is a nuclear dye commonly used to quantify drug efflux dynamics and drug accumulation in cells. […] Cells were then collected, and the MFI was determined by flow cytometry.

[4] = test system: U87 human glioma cells; test: as above; type: cell-based; details: 3 μM 4 hours, then Hoechst 33342 1 hour
Procedure: as §2

[5] = test system: U87 human glioma cancer cells; test: Presto Blue cell survival, RUVIDAR with or without N-acetylcysteine; type: cell-based; details: overnight
Procedure: U87 human glioma cancer cells were plated overnight, then treated with different doses of RUVIDAR in the presence or absence of N-acetylcysteine, a known ROS scavenger to quench the increase in ROS production. Cells were incubated overnight, and cell survival was analyzed using Presto Blue assay.

[6] = test system: PD-L1; test: PD-L1 expression by flow cytometry in T24 cells; type: cell-based, human; details: 3 μM for 2 days, MFI normalized to untreated cells
Sequence of PD-L1 (Q9NZQ7 19-290): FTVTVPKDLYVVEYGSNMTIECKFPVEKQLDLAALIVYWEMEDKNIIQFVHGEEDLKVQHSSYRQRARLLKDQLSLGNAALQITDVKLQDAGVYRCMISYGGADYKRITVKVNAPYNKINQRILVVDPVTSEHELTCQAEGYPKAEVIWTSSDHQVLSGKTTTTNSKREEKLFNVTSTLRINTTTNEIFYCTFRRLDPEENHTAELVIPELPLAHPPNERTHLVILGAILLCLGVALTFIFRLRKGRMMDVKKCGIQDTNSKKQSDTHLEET
Procedure: as §1

[7] = test system: CD47; test: CD47 expression in A549 cells, RUVIDAR or RUTHERRIN with or without ionizing radiation; type: cell-based, human; details: 3 μM
Procedure: In the tests whose results are shown in FIGS. 8C and 8D, U87 human glioma cells or A549 lung cancer cells were treated with 3 μM of RUTHERRIN or RUVIDAR prior to drug activation by 530 nm laser light (photodynamic therapy, PDT) or ionizing radiation. Cells were then collected and stained with fluorescent antibody to CD47 and analyzed by flow cytometry. MFI was normalized to control untreated cells and expressed as percentage of change.

[8] = 50 nM RUVIDAR or RUTHERRIN plus 1 μM Acyclovir
[9] = 50 nM RUVIDAR or RUTHERRIN plus 0.2% DMSO

Row | Compound | HSV-1 yield suppression, single agent [1] | percentage change in expression of CD47 [2] | Hoechst 33342 dye accumulation (MFI) [3] | Hoechst 33342 dye accumulation (MFI) [4] | cell kill percent ([5]; RUVIDAR only, different doses) | cell kill percent in the presence of N-acetylcysteine ([5]; RUVIDAR plus ROS scavenger N-acetylcysteine) | percentage change in expression of PD-L1 [6] | percentage change in CD47 expression, drug alone ([7]; no radiation) | percentage change in CD47 expression, with ionizing radiation ([7]; then ionizing radiation) | HSV-1 yield suppression, combined with Acyclovir [1, 8] | synergy score (Bliss), combined with Acyclovir [1, 8] | HSV-1 yield suppression, combined with DMSO [1, 9] | synergy score (Bliss), combined with DMSO [1, 9]
1 | Nc1nc2c(ncn2COCCO)c(=O)[nH]1 [Acyclovir, reference compound] | anti-viral effect to various degrees | – | – | – | – | – | – | – | – | – | – | – | –
2 | C[S+](C)[O-] [DMSO] | anti-viral effect to various degrees | – | – | – | – | – | – | – | – | – | – | – | –
3 | Ru(4,4′-dimethyl-2,2′-bipyridine)2(2-(2′,2″:5″,2″-terthiophene)-imidazo[4,5-f][1,10] phenanthroline) [RUVIDAR] | anti-viral effect to various degrees | significantly reduced | increases dye accumulation inside the cells | increases dye accumulation inside the cells | dose-dependent increase in cell kill | significantly reduced | significantly reduced | significantly reduced | more significant reduction | significantly potentiated | 0.040±0.013 | significantly potentiated | 0.030±0.010
